This is an account of results in ChEMBL document CHEMBL4385620, “Inhibition of polypeptide N-acetyl-α-galactosaminyltransferases is an underlying mechanism of dietary polyphenols preventing colorectal tumorigenesis” (Bioorg Med Chem, 2019).

Assay [1] deals with T1, Polypeptide N-acetylgalactosaminyltransferase 2 (Homo sapiens, UniProt Q10471). The experiment in a line: Inhibition of catalytic activity of human recombinant FLAG-tagged ppGalNAcT2 expressed in HEK293T cells and using 5-FAM labelled-EA2 peptide as substrate incubated for 30 mins by HPLC-based enzyme assay.
T1 sequence (Q10471 whole entry): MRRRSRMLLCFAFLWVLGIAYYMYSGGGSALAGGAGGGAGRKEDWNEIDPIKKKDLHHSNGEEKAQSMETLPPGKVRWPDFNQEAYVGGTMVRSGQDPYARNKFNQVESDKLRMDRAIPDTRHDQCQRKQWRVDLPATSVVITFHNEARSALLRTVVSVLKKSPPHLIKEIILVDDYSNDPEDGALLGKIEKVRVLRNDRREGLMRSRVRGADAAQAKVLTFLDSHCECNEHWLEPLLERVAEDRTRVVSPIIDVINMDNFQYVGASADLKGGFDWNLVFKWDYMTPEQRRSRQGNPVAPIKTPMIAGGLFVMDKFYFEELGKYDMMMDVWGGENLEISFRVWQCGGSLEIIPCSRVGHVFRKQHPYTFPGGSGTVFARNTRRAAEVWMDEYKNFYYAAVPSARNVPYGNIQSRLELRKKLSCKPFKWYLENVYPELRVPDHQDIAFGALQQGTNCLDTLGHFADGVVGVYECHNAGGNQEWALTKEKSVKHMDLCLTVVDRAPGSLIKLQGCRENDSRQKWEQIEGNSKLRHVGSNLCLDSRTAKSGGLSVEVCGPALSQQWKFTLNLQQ
Assay [2] has as its target T1, Polypeptide N-acetylgalactosaminyltransferase 2. The experiment in a line: Inhibition of ppGalNAcT2 in human HT-29 cells assessed as reduction in O-GalNAc glycans by measuring PNA lectin signal on cell surface at 40 uM incubated for 48 hrs by DAPI staining based immunofluorescence method.
Assay [3] has the same target. The experiment in a line: Binding affinity of human recombinant FLAG-tagged ppGalNAcT2 expressed in HEK293 cells assessed as dissociation rate by SPR analysis.
Assay [4] shares this target. The experiment in a line: Binding affinity of human recombinant FLAG-tagged ppGalNAcT2 expressed in HEK293 cells assessed as association rate by SPR analysis.
Assay [5] has the same target. The experiment in a line: Binding affinity of human recombinant FLAG-tagged ppGalNAcT2 expressed in HEK293 cells assessed as dissociation constant by SPR analysis.
The species entered for assay [6] is Homo sapiens. The experiment in a line: Ratio of IC50 for IC50 for human recombinant FLAG-tagged ppGalNAcT2 W282A mutant to IC50 for human recombinant FLAG-tagged ppGalNAcT2.
The target of assay [7] is Polypeptide N-acetylgalactosaminyltransferase 2 (Homo sapiens, UniProt Q10471, W282A). The experiment in a line: Inhibition of catalytic activity of human recombinant FLAG-tagged ppGalNAcT2 W282A mutant expressed in HEK293 cells using EA2 peptide as substrate by HPLC-based enzyme assay.
Polypeptide N-acetylgalactosaminyltransferase 2 (Homo sapiens, UniProt Q10471, W282A), sequence (Q10471 whole entry W282A): as the sequence (Q10471 whole entry) above, with W282A counted along it

Active and inactive are the calls of the source. No cut-off for these calls is given here. Bounds are passed on as bounds.

Turning to `COc1c(O)cc2c(=O)oc3c(OC)c(O)cc4c(=O)oc1c2c34`, the IC50 in assay [1] was greater than 100000 nM.

As to `c1cc2ccc3cccc4ccc(c1)c2c34` [PYRENE], in assay [2], the inhibition entry was “inactive”. Further, the half-inhibitory concentration (IC50) in assay [1] is greater than 100000 nM.

For `O=C(O)c1cc(O)c(O)c(O)c1` [GALLIC ACID], the IC50 in assay [1] is 1370 nM. In addition, the koff in assay [3] was determined as 1.34 ×10⁻³ /s. Besides, in assay [4], the kon is 1454 M⁻¹ s⁻¹. Moreover, in assay [5], the Kd worked out at 924 nM.

With `O=c1oc2c(O)c(O)cc3c(=O)oc4c(O)c(O)cc1c4c23` [ELLAGIC ACID], the inhibition entry in assay [2] was “Active”. In addition, the IC50 in assay [1] stood at 510 nM; in assay [7], 2930 nM. In addition, the Ratio IC50 in assay [6] came out at 6. Besides, the koff in assay [3] is 8.79 ×10⁻⁴ /s. In assay [4], the kon was determined as 2367 M⁻¹ s⁻¹. Also, the Kd in assay [5] worked out at 371 nM.

Regarding `O=c1oc2cc(O)ccc2c2ccccc12`, the IC50 in assay [1] is greater than 100000 nM.
